We go through 40 compounds from US12351580B2, “NLRP3 modulators” (Innate Tumor Immunity, Inc., priority 2017, dated 2025).

Where only a bound is given, the exact number is not on record here.

This test deals with T1, TLR8 (Homo sapiens, UniProt Q9NR97).
T1 construct: host or cells: HEK-Blue cells (human HEK) co-expressing TLR8 and an NF-kB/AP1-inducible SEAP reporter
T1 sequence (Q9NR97 27-1041): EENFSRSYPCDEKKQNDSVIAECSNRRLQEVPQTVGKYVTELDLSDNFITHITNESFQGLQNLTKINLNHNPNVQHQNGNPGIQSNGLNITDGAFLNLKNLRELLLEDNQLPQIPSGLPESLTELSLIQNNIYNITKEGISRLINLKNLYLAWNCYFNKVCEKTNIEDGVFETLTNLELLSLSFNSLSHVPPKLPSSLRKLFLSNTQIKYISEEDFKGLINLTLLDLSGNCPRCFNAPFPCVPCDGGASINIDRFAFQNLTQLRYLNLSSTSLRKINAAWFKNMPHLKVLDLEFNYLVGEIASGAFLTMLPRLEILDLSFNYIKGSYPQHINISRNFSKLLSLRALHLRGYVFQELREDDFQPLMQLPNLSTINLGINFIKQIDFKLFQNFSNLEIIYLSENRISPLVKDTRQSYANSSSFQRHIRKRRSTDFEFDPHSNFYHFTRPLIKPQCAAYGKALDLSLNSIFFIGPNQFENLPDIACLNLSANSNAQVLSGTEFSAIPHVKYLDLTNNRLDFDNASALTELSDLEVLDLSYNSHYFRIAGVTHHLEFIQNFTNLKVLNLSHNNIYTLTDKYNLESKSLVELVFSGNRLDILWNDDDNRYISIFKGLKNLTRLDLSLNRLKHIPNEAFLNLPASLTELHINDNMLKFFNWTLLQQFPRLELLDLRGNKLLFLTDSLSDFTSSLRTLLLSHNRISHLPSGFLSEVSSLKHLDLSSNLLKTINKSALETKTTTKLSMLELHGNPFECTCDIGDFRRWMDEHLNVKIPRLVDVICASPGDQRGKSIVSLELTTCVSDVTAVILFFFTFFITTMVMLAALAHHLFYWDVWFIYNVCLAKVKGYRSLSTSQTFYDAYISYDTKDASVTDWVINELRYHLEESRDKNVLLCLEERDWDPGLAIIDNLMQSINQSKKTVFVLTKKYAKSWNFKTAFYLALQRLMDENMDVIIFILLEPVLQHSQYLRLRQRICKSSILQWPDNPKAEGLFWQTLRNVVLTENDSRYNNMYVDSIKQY
The test is described as follows: In vitro human TLR8 binding reporter assay (HEK-Blue, NF-kB/AP1-inducible SEAP). Conditions: activity range symbols. It is filed as cell-based. The protocol: In Vitro Human TLR7 and TLR8 Binding Reporter Assays
Logarithmically-growing human HEK-Blue cells co-expressing a TLR7 or TLR8 gene and a NF-kB/AP1-inducible SEAP (secreted embryonic alkaline phosphatase; Invivogen, San Diego, CA) reporter gene are added to individual wells of a 384-well plate (15,000 cells per 20 μL per well) and maintained for 24 h at 37° C., 5% CO2. Test compounds or DMSO are distributed to separate wells the next day using acoustic liquid handling technology (100 nL per well) and cells are subsequently incubated for 18 h at 37° C., 5% CO2. Cellular SEAP production is measured using an Envision plate reader instrument thirty minutes after adding freshly-made Quanti-Blue reagent (prepared by following manufacturer instructions; Invivogen, San Diego, CA) to the HEK-Blue TLR Nf-kB-SEAP cell reactions. All EC50 values (half-maximal effective concentration) are determined using proprietary data analysis software.
In general terms: In a reporter assay the amount or activity of a reporter protein is the signal.
A word on the EC50: it is the concentration giving half of the maximal effect. The low end stands for greater potency, the high end for weaker potency. `Nc1nc2cc(-n3cccn3)ccc2c2[nH]c(CN3CC(c4ccccc4)CC3=O)nc12` (stereo not shown) [Compound 103] gave an EC50 of over 100 µM. The value for `CCN(Cc1nc2c(N)nc3cc(C)ccc3c2[nH]1)C(C)=O` [Compound 104] was over 100 µM. In turn, `CCNCc1nc2c(N)nc3cc(-c4cc[nH]n4)ccc3c2n1C` [Compound 106, 2-((Ethylamino)methyl)-1-methyl-7-(1H-pyrazol-3-yl)-1H-imidazo[4,5-c]quinolin-4-amine] came in with a concentration for a half-maximal effect (EC50) of over 100 µM. The figure for `CCN(Cc1nc2c(N)nc3cc(-n4cccn4)ccc3c2[nH]1)S(C)(=O)=O` [Compound 108, N-((4-Amino-7-(1H-pyrazol-1-yl)-1H-imidazo[4,5-c]quinolin-2-yl)methyl)-N-ethylmethanesulfonamide] is over 100 µM. In turn, `CCN(Cc1nc2c(N)nc3cc(-c4cc[nH]n4)ccc3c2[nH]1)C(=O)OC(C)(C)C` [Compound 109, tert-Butyl ((4-amino-7-(1H-pyrazol-3-yl)-1H-imidazo[4,5-c]quinolin-2-yl)methyl)(ethyl)carbamate] had an EC50 of over 100 µM.

On to `CCN(Cc1nc2c(N)nc3cc(-c4cc[nH]n4)ccc3c2[nH]1)C(=O)N(C)C` [Compound 110, 1-((4-Amino-7-(1H-pyrazol-3-yl)-1H-imidazo[4,5-c]quinolin-2-yl)methyl)-1-ethyl-3,3-dimethylurea], for which the half-maximal effective concentration (EC50) was over 100 µM. The figure for `Nc1nc2cc(C(F)(F)F)ccc2c2[nH]c(CN3CCCC3=O)nc12` [Compound 163] is over 100 µM; for `CCN(Cc1nc2c(N)nc3ccccc3c2n1CCCC(=O)OC)C(C)=O` [Compound 164] it is over 100 µM.

Consider `CCN(Cc1nc2c(N)nc3cc(-c4ccccc4)ccc3c2[nH]1)C(C)=O` [Compound 165, N-[(4-amino-7-phenyl-1H-imidazo[4,5-c]quinolin-2-yl)methyl]-N-ethylacetamide], for which the 50% effective concentration (EC50) is over 100 µM. For `CCN(Cc1nc2c(N)nc3cc(-c4cccnc4)ccc3c2[nH]1)C(C)=O` [Compound 166, N-[(4-amino-7-pyridin-3-yl-1H-imidazo[4,5-c]quinolin-2-yl)methyl]-N-ethylacetamide], the 50% effective concentration (EC50) is over 100 µM. Take `CCN(Cc1nc2c(N)nc3cc(-c4ccncc4)ccc3c2[nH]1)C(C)=O` [Compound 167, N-[(4-amino-7-pyridin-4-yl-1H-imidazo[4,5-c]quinolin-2-yl)methyl]-N-ethylacetamide]: the 50% effective concentration (EC50) was over 100 µM. Consider `CCN(Cc1nc2c(N)nc3cc(-c4cc(C)nn4C)ccc3c2[nH]1)C(C)=O` [Compound 168, N-[[4-amino-7-(2,5-dimethylpyrazol-3-yl)-1H-imidazo[4,5-c]quinolin-2-yl]methyl]-N-ethylacetamide], for which the 50% effective concentration (EC50) was over 100 µM. Turning to `CCCn1cc(-c2ccc3c(c2)nc(N)c2nc(CN(CC)C(C)=O)[nH]c23)cn1` [Compound 169, N-[[4-amino-7-(1-propylpyrazol-4-yl)-1H-imidazo[4,5-c]quinolin-2-yl]methyl]-N-ethylacetamide], the EC50 was over 100 µM. The value for `CCN(Cc1nc2c(N)nc3cc(C(C)C)ccc3c2[nH]1)C(C)=O` [Compound 170, N-[(4-amino-7-propan-2-yl-1H-imidazo[4,5-c]quinolin-2-yl)methyl]-N-ethylacetamide] was over 100 µM; that for `CCc1ccc2c(c1)nc(N)c1nc(CN(CC)C(C)=O)[nH]c12` [Compound 171, N-[(4-amino-7-ethyl-1H-imidazo[4,5-c]quinolin-2-yl)methyl]-N-ethylacetamide] was over 100 µM; that for `CCCc1ccc2c(c1)nc(N)c1nc(CN(CC)C(C)=O)[nH]c12` [Compound 172, N-[(4-amino-7-propyl-1H-imidazo[4,5-c]quinolin-2-yl)methyl]-N-ethylacetamide] was over 100 µM. `CCN(Cc1nc2c(N)nc3cc(C4CCCC4)ccc3c2[nH]1)C(C)=O` [Compound 173, N-[(4-amino-7-cyclopentyl-1H-imidazo[4,5-c]quinolin-2-yl)methyl]-N-ethylacetamide] gave an EC50 of over 100 µM.

Compound `CCN(Cc1nc2c(N)nc3cc(-c4cccnc4F)ccc3c2[nH]1)C(C)=O` [Compound 175, N-[[4-amino-7-(2-fluoropyridin-3-yl)-1H-imidazo[4,5-c]quinolin-2-yl]methyl]-N-ethylacetamide] displayed an EC50 of over 100 µM.

Compound `CCN(Cc1nc2c(N)nc3ccccc3c2[nH]1)C(C)=O` [Compound 176] registered an EC50 of over 100 µM. `CCN(Cc1nc2c(N)nc3cc(Br)ccc3c2[nH]1)C(C)=O` [Compound 177]: the concentration giving a half-maximal response (EC50) was over 100 µM. The figure for `CCN(Cc1nc2c(N)nc3cc(Cl)ccc3c2[nH]1)C(C)=O` [Compound 179, N-[(4-amino-7-chloro-1H-imidazo[4,5-c]quinolin-2-yl)methyl]-N-ethylacetamide] is over 100 µM; for `CCN(Cc1nc2c(N)nc3cc(-n4cccn4)ccc3c2[nH]1)C(C)=O` [Compound 180, N-[(4-amino-7-pyrazol-1-yl-1H-imidazo[4,5-c]quinolin-2-yl)methyl]-N-ethylacetamide] it is over 100 µM; for `CCN(Cc1nc2c(N)nc3cc(C4=CCCC4)ccc3c2[nH]1)C(C)=O` [Compound 183] it is over 100 µM. For `CC(=O)N(C)Cc1nc2c(N)nc3ccccc3c2[nH]1` [Compound 187], the half-maximal effective concentration (EC50) was 20 to 100 µM. Regarding `COC(=O)CCCn1c(CN(C)C(C)=O)nc2c(N)nc3ccccc3c21` [Compound 188], the concentration giving a half-maximal response (EC50) is over 100 µM. Turning to `CCN(Cc1nc2c(N)nc3cc(C4CC4)ccc3c2n1Cc1ccc(OC)cc1)C(C)=O` [Compound 190], the EC50 was over 100 µM.

Turning to `CCN(Cc1nc2c(N)nc3ccccc3c2n1CCCNC(=O)OC(C)(C)C)C(C)=O` [Compound 191], the EC50 is over 100 µM. As to `CCN(Cc1nc2c(N)nc3ccc(Br)cc3c2[nH]1)C(C)=O` [Compound 194], the EC50 was over 100 µM. The value for `CCN(Cc1nc2c(N)nc3cc(N4CCNC4=O)ccc3c2n1Cc1ccc(OC)cc1)C(C)=O` [Compound 196] was over 100 µM; that for `CCN(Cc1nc2c(N)nc3ccc(Cl)cc3c2[nH]1)C(C)=O` [Compound 197] was over 100 µM. The figure for `CCOC(=O)c1cc2c(cc1Br)nc(N)c1nc(CN(CC)C(C)=O)[nH]c12` [Compound 198] is over 100 µM. The figure for `CCN(Cc1nc2c(N)nc3ccc(Br)cc3c2[nH]1)C(=O)OC` [Compound 200] is over 100 µM; for `CCN(Cc1nc2c(N)nc3ccc(Br)cc3c2[nH]1)S(C)(=O)=O` [Compound 201] it is over 100 µM; for `CCN(Cc1nc2c(N)nc3ccc(Br)cc3c2[nH]1)S(=O)(=O)c1ccc(C)cc1` [Compound 202] it is over 100 µM. In turn, `CCN(Cc1nc2c(N)nc3ccc(Br)cc3c2[nH]1)C(=O)C(C)C` [Compound 203] showed an EC50 of over 100 µM. The value for `CCN(Cc1nc2c(N)nc3ccc(Br)cc3c2[nH]1)C(=O)c1ccccc1` [Compound 204] was over 100 µM. The value for `CCN(Cc1nc2c(N)nc3ccccc3c2n1CCC(=O)N1CCOCC1)C(=O)OC(C)(C)C` [Compound 205] was over 100 µM. As to `CCN(Cc1nc2c(N)nc3ccc(-n4cccn4)cc3c2[nH]1)C(C)=O` [Compound 207], the concentration for a half-maximal effect (EC50) is over 100 µM. The figure for `CCN(Cc1nc2c(N)nc3cc(Br)ccc3c2n1CCCC(=O)N1CCN(C)CC1)C(C)=O` [Compound 209] is over 100 µM.

Turning to `CCN(Cc1nc2c(N)nc3cc(Br)ccc3c2n1CCCC(=O)NC)C(C)=O` [Compound 210], the EC50 was over 100 µM.
